Series [1] concerns the target T1, 340 wild-type kinases (Homo sapiens, UniProt P11802).
T1 construct: purchased Reaction Biology Europe
As to the kind of experiment: selectivity profiling in a panel of 340 wild-type kinases (Reaction Biology Europe). The format is binding. As to conditions: CDK4/CycD1; 1 µM; read-out: residual activity. The text has this: (§1) Potential interactions between 2015 and 340 wild-type kinases were checked by means of a competition binding assay performed by Reaction Biology Europe (Supplementary Table 15).

In series [2] the target is T2, 340 wild-type kinases (Homo sapiens, UniProt P25098).
T2 construct: purchased Reaction Biology Europe
T2 sequence (P25098 1-689): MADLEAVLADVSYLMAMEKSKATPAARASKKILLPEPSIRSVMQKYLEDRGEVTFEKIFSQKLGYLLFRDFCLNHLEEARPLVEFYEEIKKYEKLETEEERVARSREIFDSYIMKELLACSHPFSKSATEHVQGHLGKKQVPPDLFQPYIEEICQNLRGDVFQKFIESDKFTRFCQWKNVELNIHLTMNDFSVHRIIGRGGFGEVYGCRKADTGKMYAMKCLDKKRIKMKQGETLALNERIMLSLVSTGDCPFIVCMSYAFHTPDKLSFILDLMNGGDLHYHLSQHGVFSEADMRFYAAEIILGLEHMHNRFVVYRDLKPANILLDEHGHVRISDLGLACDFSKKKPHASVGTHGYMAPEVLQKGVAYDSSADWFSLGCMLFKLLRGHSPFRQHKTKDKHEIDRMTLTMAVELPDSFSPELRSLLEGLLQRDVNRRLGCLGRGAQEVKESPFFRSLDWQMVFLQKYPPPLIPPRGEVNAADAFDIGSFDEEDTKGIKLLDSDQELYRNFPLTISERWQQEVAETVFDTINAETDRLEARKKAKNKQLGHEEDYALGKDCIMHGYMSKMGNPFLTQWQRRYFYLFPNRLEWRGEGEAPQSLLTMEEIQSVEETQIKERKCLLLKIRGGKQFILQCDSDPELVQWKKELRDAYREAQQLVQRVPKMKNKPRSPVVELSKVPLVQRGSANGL
The series is described as above. It is filed as binding. The conditions noted are these: 1 µM 2015; read-out: GRK2 residual activity.
Description: as §1

In series [3] the target is T3, 340 wild-type kinases (Homo sapiens, UniProt P27361).
T3 construct: purchased Reaction Biology Europe
Described as above. It is filed as binding. The conditions noted are these: 0.2 µM 2015; read-out: ERK1 residual activity.
Description: as §1

Series [4] addresses T4, 340 wild-type kinases (Homo sapiens, UniProt P48729).
T4 construct: purchased Reaction Biology Europe
The series is described as above. The format is binding. As to conditions: 1 µM 2015; read-out: CK1alpha1 residual activity.
Description: as §1

Series [5] deals with T5, 340 wild-type kinases (Homo sapiens, UniProt Q8TDX7).
T5 construct: purchased Reaction Biology Europe
Described as above. The conditions noted are these: NEK7; 1 µM; read-out: residual activity. It is filed as binding.
Description: as §1

Series [6] has as its target T6, 340 wild-type kinases (Homo sapiens, UniProt Q9UQM7).
T6 construct: purchased Reaction Biology Europe
The series is described as above. It is filed as binding. As to conditions: CAMK2A; 0.2 µM; read-out: residual activity.
Description: as §1

Series [7] can be described thus: cell viability in healthy human colon organoids SCC311. It is filed as cell-based. As to conditions: female, human, ED Fig. 10f, replicates. The method, then:
(§2) Primary tumor material was chopped, washed in ice-cold medium and transferred into basic medium (Supplementary Table 17), supplemented with 2.5 mg ml^−1 collagenase II (Thermo Fisher Scientific), 2.5 mg ml^−1 collagenase XI (Sigma-Aldrich), 1 mg ml^−1 Dispase II (Sigma-Aldrich), 100 µg ml^−1 DNase I and 10.5 µM Y-27632 dihydrochloride (Invitrogen). Tumor digestion was performed at 37 °C and stopped by adding medium containing 10% FBS. The mixture was centrifuged for 5 min at 300g. Red blood cells were removed with ACK lysing buffer (Thermo Fisher Scientific; 5 min at room temperature) and the pellet was resuspended in medium. Approximately 1,000 cells were resuspended and plated in 50 µl of Cultrex RGF BME, type 2 (R&D Systems). The ascites material was pelleted by centrifugation at 300g and washed three times with ice-cold PBS. Human CRC organoids were cultured in human CRC medium (Supplementary Table 17) at 37 °C and 7% CO2. Within the first week, the medium was supplemented with 10.5 µM Y-27632 dihydrochloride (Invitrogen). The human colon organoids (SCC311 and SCC321) were purchased from Sigma-Aldrich and cultured in human colon medium (Supplementary Table 17) at 37 °C and 7% CO2. They were derived from participants with the following sex and age: […].
(§3) For in vitro treatment studies, organoids were mechanically dissociated and digested using TrypLE supplemented with 100 µg ml^−1 DNaseI and 10.5 µM Y-27632 dihydrochloride (Invitrogen) at 37 °C. A total of 1,000–2,000 single cells were plated per well in white 96-well plates (Greiner) in culture medium containing 10% GFR Matrigel or Cultrex BME. The treatment with doxycycline (5 µg ml^−1), pharmacological inhibitors or corresponding volumes of DMSO was started 24 h after plating. Doxycycline was obtained from Sigma-Aldrich. […] Cell viability was measured by means of CellTiter-Glo 3D or CellTiter-Glo 2.0 reagent (Promega) according to the manufacturers’ instructions and the Infinite M Plex reader (Tecan, i-control version 3.9.1 software). Results were normalized to vehicle (DMSO) or to shNC. For cell-doubling assays, the cell number was quantified at the corresponding time points using Guava EasyCyte flow cytometer (Luminex, CytoSoft v5.2 software).

For series [8], the system named is SCC311 human colon organoids. The series is described as above. As to conditions: for Cell viability (%): ED Fig. 10f, replicates. The format is cell-based. As to the method:
as §2, §3

Results on one molecule are retold here after article PMC11864979, “First-in-class ultralong-target-residence-time p38α inhibitors as a mitosis-targeted therapy for colorectal cancer” (Nature Cancer, 2025).

Where “and” joins values, the source holds several entries; their conditions need not be identical. Equal entries are not always repeated.

T1 sequence (P11802 whole entry): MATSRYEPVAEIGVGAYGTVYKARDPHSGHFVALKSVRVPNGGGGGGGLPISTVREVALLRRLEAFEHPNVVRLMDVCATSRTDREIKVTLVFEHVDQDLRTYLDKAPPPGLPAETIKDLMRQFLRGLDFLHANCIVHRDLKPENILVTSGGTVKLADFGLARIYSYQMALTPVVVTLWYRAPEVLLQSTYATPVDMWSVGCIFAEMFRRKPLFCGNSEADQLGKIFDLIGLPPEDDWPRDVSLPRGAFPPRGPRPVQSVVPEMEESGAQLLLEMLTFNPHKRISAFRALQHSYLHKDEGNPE
T3 sequence (P27361 whole entry): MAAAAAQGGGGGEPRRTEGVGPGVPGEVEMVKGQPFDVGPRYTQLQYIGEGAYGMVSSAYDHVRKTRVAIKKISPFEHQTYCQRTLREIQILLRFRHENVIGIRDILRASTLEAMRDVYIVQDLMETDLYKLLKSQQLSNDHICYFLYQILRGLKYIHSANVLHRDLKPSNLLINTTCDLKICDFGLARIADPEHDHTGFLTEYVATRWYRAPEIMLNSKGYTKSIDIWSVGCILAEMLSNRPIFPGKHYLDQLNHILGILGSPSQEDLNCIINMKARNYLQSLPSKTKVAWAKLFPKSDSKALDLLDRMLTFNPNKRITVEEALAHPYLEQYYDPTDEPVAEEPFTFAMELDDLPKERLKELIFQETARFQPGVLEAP
T4 sequence (P48729 whole entry): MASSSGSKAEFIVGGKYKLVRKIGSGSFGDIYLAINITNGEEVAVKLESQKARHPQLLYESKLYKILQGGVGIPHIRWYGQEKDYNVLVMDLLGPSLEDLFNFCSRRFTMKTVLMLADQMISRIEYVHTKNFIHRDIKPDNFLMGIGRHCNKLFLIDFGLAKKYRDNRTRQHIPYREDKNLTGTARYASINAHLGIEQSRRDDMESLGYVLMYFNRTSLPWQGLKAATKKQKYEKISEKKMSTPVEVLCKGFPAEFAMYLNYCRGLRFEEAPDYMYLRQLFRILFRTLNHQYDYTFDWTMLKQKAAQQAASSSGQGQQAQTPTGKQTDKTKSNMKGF
T5 sequence (Q8TDX7 whole entry): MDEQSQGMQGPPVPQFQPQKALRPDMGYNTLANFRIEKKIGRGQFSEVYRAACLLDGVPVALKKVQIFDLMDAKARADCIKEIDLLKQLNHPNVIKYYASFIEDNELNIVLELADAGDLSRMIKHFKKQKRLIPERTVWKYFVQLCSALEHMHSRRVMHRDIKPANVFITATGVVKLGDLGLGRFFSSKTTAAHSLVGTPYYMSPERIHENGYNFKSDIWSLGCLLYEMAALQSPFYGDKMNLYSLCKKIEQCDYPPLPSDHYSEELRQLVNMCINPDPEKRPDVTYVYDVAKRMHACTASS
T6 sequence (Q9UQM7 whole entry): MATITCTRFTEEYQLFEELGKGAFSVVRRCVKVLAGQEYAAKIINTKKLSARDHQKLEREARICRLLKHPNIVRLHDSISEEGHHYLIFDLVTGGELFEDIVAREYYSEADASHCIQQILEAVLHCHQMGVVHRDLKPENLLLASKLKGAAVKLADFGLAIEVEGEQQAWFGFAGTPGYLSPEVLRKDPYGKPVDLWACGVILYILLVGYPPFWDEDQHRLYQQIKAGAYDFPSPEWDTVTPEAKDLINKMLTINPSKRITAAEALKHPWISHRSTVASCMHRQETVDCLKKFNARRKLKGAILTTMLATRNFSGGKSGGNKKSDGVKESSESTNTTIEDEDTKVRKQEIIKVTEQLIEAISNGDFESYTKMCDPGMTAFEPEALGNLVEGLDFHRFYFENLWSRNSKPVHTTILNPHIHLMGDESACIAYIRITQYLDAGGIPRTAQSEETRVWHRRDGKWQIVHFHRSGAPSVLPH

As for `CNC(=O)c1ccc2c(c1)C(=O)c1ccc(Nc3ccc(F)c(NC(=O)C4CC4)c3)cc1CC2` [Compound 2015], the remaining activity at 1 µM at 340 wild-type kinases [1] worked out at 98.4%; on 340 wild-type kinases [2], 80.8%; at 340 wild-type kinases [4], 94.9%; at 340 wild-type kinases [5], 110%. Also, the remaining activity at 0.2 µM at 340 wild-type kinases [3] was 108%; at 340 wild-type kinases [6], 102%. For the same molecule, the viability at 5 µM in series [7] (healthy human colon organoids SCC311, 2015 0,5 µM) is 96%. In addition, the viability at 25 µM in series [7] (healthy human colon organoids SCC311, 2015 0,25 µM) is 113%. The “Cell viability (%)” value in series [8] (2015 0,5 µM, 5 µM) was 94.54% and 77.32%; in series [8] (2015 0,25 µM, 25 µM) it was 97.45% and 99.37%; in series [8] (2015 1 µM), 74.60% and 77.39% and 95.83%. The “response of healthy human colon culture (in words)” value in series [8] (SCC311, 4 d) was “only a very weak response”.

The viability is a read-out of living cells in per cent, often relative to untreated cells.
